Assay results: ChEMBL document CHEMBL1137075, “General model for estimation of the inhibition of protein kinases using Monte Carlo simulations” (J Med Chem, 2004)
pIC50: −log10 of the molar value.

Legend:
[1] = molecular target: Cyclin-dependent kinase 2 (Homo sapiens, UniProt P24941); test: Evaluated for inhibition of human cyclin dependent kinase 2 (CDK2)
[2] = molecular target: Tyrosine-protein kinase Lck (Homo sapiens, UniProt P06239)
Tyrosine-protein kinase Lck, sequence (P06239 whole entry): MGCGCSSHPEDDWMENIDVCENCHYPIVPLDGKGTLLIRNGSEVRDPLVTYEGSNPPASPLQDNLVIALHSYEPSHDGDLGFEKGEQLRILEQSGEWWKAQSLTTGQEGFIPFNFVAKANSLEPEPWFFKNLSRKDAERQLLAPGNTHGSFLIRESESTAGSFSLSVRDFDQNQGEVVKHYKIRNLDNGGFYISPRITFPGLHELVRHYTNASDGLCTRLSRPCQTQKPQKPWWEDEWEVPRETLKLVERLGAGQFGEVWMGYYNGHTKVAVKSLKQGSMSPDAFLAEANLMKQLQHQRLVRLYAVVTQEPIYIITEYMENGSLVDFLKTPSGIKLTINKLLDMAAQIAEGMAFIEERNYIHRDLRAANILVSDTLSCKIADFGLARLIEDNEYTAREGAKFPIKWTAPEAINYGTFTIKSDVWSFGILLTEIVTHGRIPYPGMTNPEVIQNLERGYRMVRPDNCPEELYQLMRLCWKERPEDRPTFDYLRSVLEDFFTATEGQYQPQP
Description: Evaluated for inhibition of human p56 Lck tyrosine kinase

Work on `COc1ccc2[nH]c(O)c(/N=N/c3ccccc3)c2c1` yielded a pIC50 [1] of 7.22.
`COc1cc2nc(Nc3c(C)cccc3Cl)c3cnc(CO)n3c2cc1OC` gave a pIC50 [2] of 8.21.
For `c1ccc2c(c1)nc(C1CCCCC1)c1cncn12`, the pIC50 [2] was 5.50.
With `Oc1[nH]c2ccc(Br)cc2c1/N=N/c1ccccc1` the pIC50 [1] was 7.37.
For `COc1cc2nc(Nc3c(C)cccc3Cl)c3cnc(C=O)n3c2cc1OC`, the pIC50 [2] was 8.00.
With `c1cncc(-c2nc3ccccc3n3cncc23)c1` the pIC50 [2] was 6.09.
`c1ccc2c(c1)nc(C1CC1)c1cncn12` showed a pIC50 [2] of 5.50.
Work on `Oc1[nH]c2ccccc2c1/N=N/c1ccccc1` yielded a pIC50 [1] of 7.34.
For `CCCc1nc2ccccc2n2cncc12`, the pIC50 [2] was 5.57.
